Results from paper PMC5082894 (PLoS ONE, 2016).

Legend:
[1] = Cytotoxicity by MTT method (MAGI cells); format: cell-based; conditions: human, HeLa CD4/CCR5-LTR/β-gal cells (MAGI cells); MTT, mean of triplicate ± SD
Description: (§1) Briefly, target cells (HeLa CD4/CCR5-LTR/β-gal; 10^4/well) were plated in 96-well flat microtiter culture plates. […] The test drugs were added initially and viruses were immediately inoculated onto the cells. Forty-eight hours after viral exposure, all blue cells in each well were counted. The cytotoxicity of the compound was determined by the MTT method as previously described. All experiments were performed in triplicate and AZT was used as reference anti-HIV-1 molecule.

[2] = test system: HeLa CD4/CCR5-LTR/β-gal cells; assay: Cytotoxicity by MTT method (MAGI cells); format: cell-based; conditions: concentrations up to 100 μg/ml (115.7 μM)
Description: as §1

HIV-1 92HT599 (B-X4) = assay: PBMC antiviral assay (RT activity), HIV-1 92HT599; format: cell-based; conditions: Human immunodeficiency virus 1, PBMC, 168 h; PHA-P-activated PBMCs, 125 TCID50, day 7, RT activity
Description: In order to confirm antiretroviral activity of the compounds, using a cell model closer to the pathophysiology, Peripheral Blood Mononuclear Cells (PBMCs) were separated from a buffy-coat from healthy HIV-, HCV-, HBV-seronegative blood donors by Ficoll-Hypaque density gradient centrifugation. The PBMCs were activated by incubation with 1 μg/ml phytohemagglutinin-P (PHA-P; Difco Laboratories) for three days in RPMI 1640 medium supplemented with 10% heat-inactivated fetal calf serum (FCS, +56 ◦C for 45 min), 2mM l-glutamine and a 1% antibiotic cocktail (penicillin, streptomycin, neomycin). After this mitogen activation, PBMCs were cultivated in the same culture medium supplemented with recombinant human interleukin-2 (rHuIL-2; 20 IU/mL) and treated and/or infected. […] All these viruses were amplified in vitro with PHA-P-activated blood mononuclear cells and 50% tissue culture infectious doses (TCID50) were calculated using Kärber’s formula [37], after limited-dilution titration. […] Viral replication was measured by quantifying reverse transcriptase (RT) activity in the cell culture supernatants using the Lenti RT Activity Kit (Cavidi) and AZT was used as reference anti-HIV-1 molecule. EC50 were then calculated and expressed in μM.

[3] = Stability studies in formulations; format: physicochemical; conditions: in various formulations
Cytotoxicity in PBMCs = format: cell-based, human; conditions: human, PHA-P-activated peripheral blood mononuclear cells (PBMCs)
[4] = test system: PD-1 expression on CD4+ and CD8+ T cells; assay: Flow cytometry of PD-1 on T cells without HIV-1 (IND02-trimer alone); format: cell-based, human; conditions: no HIV-1, day 9 post exposure
[5] = test system: PD-1 expression on CD4+ and CD8+ T cells; assay: Flow cytometry of PD-1 on T cells of HIV-1-infected PBMCs; format: cell-based, human; conditions: day 9 post infection
Text: PBMCs (1 x 10^6/ml) were infected with 100 TCID50 of various HIV-1 strains (92UG037: primary R5-tropic strain; YU2B and BaL: R5-tropic lab strains, 93BR020: dual-tropic primary isolate; NL4-3: X4-tropic lab strain) and simultaneously treated with a range of concentrations of IND02-trimer in 24-well plates (Greiner) in duplicates. Cells were washed, fixed (4% paraformaldehyde) and stained on several days post infection (1-4-9-13-19) using the following mAbs against PD-1-Brilliant Violet 421, CD3-FITC, Tim-3-PE, CD4-PE-Cy7 (all from Biolegend) and CD8-APC (Miltenyi). Multicolor flow cytometric analyses were performed on a FACS Verse (BD Biosciences).
Fig 5 Reduction of Tim-3 (left) and PD1 (right) expression on HIV-1 and IND02-trimer-treated CD8^+ (A) and CD4^+ (B) T cells. Stimulated PBMCs were simultaneously incubated with 0.4 to 40 μg/ml (0.46–46.3 μM) IND02-trimer and HIV-1 (92UG037, BaL, YU2b, 93BR020 or NL4-3). Up-regulation of Tim-3 (left) and PD-1 (right) on CD8^+ (A) and CD4^+ (B) T cells was impeded by the IND02-trimer, as shown by multicolour FACS analyses of live T cells on day 9 post co-treatment. Experiments were repeated in 4–5 independent experiments with cells from different donors and statistical differences were analyzed by the GraphPad prism software using the unpaired student’s t-test (2-tailed).

[6] = biological target: T1, MN gp120/CD4 complex binding to mAb 17b (co-receptor binding site) (Human immunodeficiency virus type 1 group M subtype B, UniProt P05877); set-up: species or system HIV-1; conditions: Fig 4E
T1 construct: purchased Immunodiagnostics (Massachusetts, USA)
Description: For that purpose, CM4 sensorchips were activated with 50 μL of 0.2 M N-ethyl-N’-([…])-carbodiimide (EDC) and 0.05 M N-hydroxy-succimide (NHS) at 5 μL/min. Then soluble CD4 (10 μg/mL in 10 mM acetate buffer, pH 5), streptavidin (200 μg/mL in 10 mM acetate buffer, pH 4.2), mAb 17b (5 μg/mL in 10 mM acetate buffer, pH 5), MN gp120 (50 μg/ml in 5 mM maleate buffer, pH 6) or YU2 gp120 (50μg/mL in 10 mM acetate buffer, pH 4.8) were injected at 5 μL/min over one of the EDC/NHS activated flow cell until levels of 1200 (for sCD4), 700 (for mAb 17b), 3000 (for streptavidin), or 4500 (for gp120s) response units (RU) were achieved. HS (1 mM in phosphate-buffered saline) was biotinylated through its reducing end by reductive amination with 10 mM of biotin-LC-Hydrazine (Pierce) and captured on the streptavidin surface (20 μg/mL in 10 mM Hepes buffer pH 7.4 and 0.3 M NaCl) to a level of 60–80 RU as described. Surfaces were then blocked with 1M ethanolamine (pH 8.5) for 5 minutes. […]
The specific binding responses in resonance unit (RU) for MN- (A) and YU2- (B) gp120 were recorded as a function of time (s). […] The specific binding responses in resonance unit (RU) for MN- (C, E) and YU2- (D, F) gp120 were recorded as a function of time (s), and after each injection, the surface was regenerated by a short pulse of 10 mM HCl. […]

Oc1cc(O)c2c(c1)O[C@@]1(c3ccc(O)c(O)c3)Oc3cc(O)c4c(c3[C@@H]2[C@H]1O)O[C@H](c1ccc(O)c(O)c1)[C@H](O)[C@H]4c1c(O)cc(O)c2c1O[C@H](c1ccc(O)c(O)c1)[C@H](O)C2 [IND02-trimer, cinnamtannin B1]
CC50 [1]: 96 ± 4 µM | cytotoxicity [2]: did not show cytotoxicity | EC50 (HIV-1 92HT599 (B-X4)): 1.2 ± 1 µM | time over which the compound is stable [3]: ≥ 6 months | CC50 (Cytotoxicity in PBMCs): 23 ± 2 µM | % CD4+/PD-1+ ([4]; 0.4 μg/ml / 0.46 μM): 33.8% | % CD8+/PD-1 ([4]; 0.4 μg/ml / 0.46 μM): 23.7% | % CD4+/PD-1+ ([4]; 2 μg/ml / 2.31 μM): 35.0% | % CD8+/PD-1 ([4]; 2 μg/ml / 2.31 μM): 23.5% | % CD4+/PD-1+ ([4]; 4 μg/ml / 4.6 μM): 32.1% | % CD8+/PD-1 ([4]; 4 μg/ml / 4.6 μM): 23.7% | % CD4+/PD-1+ ([4]; 20 μg/ml / 23.1 μM): 32.0% | % CD8+/PD-1 ([4]; 20 μg/ml / 23.1 μM): 23.9% | % CD4+/PD-1+ ([4]; 40 μg/ml / 46 μM): 32.7% | % CD8+/PD-1 ([4]; 40 μg/ml / 46 μM): 23.5% | PD-1 expression on CD8+ T cells versus infected control cells ([5]; HIV-1-exposed PBMCs, all concentrations tested (0.4 to 40 μg/ml)): significantly reduced | PD-1 expression on CD4+ T cells versus infected control cells ([5]; HIV-1-infected PBMCs): decreased | concentration from which inhibition of MN gp120/CD4 binding to mAb 17b was observed [6]: ≥ 50 µM
